According to patent US20100311714A1, “1H-IMIDAZO[4,5-c]QUINOLINONE COMPOUNDS” (priority 2009, published 2010):
Where two headings read alike, the source gives them in different places.

Key:
[1] = system: S6 Ribosomal Protein phosphorylation Ser235/236 in TSC1 null mouse embryo fibroblast (MEF) cells; test: Reverse protein array, S6 Ribosomal Protein phosphorylation in TSC1 null MEF cells; format: cell-based; details: 1 h, TSC1-/- MEFs, 60 minutes
Summary of the method: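 Phospho-S6 (Ser235/236) was quantified by reverse protein array of cell lysates with a phospho-specific primary antibody. […]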

PI3K alfa = target: T1, PI3K alfa (Homo sapiens, UniProt P42336); test: PI3K alpha kinase assay (Kinase-Glo luminescence); format: biochemical
T1 construct: His tag (C); made in house; host or cells: baculovirus BV1075; Tn5 (Trichoplusia ni) or TiniPro insect cells
Summary of the method: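 IC50 values come from a four-parameter logistic fit of percent inhibition at eight concentrations, typically 10 to 0.003 μM. Recombinant PI3Kα at 10 nM turned over 1 μM ATP with 10 μg/mL PI for 60 min at room temperature, and residual ATP was measured by Kinase-Glo.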

T1 sequence (P42336 with tags, fused parts or gaps limits assumed): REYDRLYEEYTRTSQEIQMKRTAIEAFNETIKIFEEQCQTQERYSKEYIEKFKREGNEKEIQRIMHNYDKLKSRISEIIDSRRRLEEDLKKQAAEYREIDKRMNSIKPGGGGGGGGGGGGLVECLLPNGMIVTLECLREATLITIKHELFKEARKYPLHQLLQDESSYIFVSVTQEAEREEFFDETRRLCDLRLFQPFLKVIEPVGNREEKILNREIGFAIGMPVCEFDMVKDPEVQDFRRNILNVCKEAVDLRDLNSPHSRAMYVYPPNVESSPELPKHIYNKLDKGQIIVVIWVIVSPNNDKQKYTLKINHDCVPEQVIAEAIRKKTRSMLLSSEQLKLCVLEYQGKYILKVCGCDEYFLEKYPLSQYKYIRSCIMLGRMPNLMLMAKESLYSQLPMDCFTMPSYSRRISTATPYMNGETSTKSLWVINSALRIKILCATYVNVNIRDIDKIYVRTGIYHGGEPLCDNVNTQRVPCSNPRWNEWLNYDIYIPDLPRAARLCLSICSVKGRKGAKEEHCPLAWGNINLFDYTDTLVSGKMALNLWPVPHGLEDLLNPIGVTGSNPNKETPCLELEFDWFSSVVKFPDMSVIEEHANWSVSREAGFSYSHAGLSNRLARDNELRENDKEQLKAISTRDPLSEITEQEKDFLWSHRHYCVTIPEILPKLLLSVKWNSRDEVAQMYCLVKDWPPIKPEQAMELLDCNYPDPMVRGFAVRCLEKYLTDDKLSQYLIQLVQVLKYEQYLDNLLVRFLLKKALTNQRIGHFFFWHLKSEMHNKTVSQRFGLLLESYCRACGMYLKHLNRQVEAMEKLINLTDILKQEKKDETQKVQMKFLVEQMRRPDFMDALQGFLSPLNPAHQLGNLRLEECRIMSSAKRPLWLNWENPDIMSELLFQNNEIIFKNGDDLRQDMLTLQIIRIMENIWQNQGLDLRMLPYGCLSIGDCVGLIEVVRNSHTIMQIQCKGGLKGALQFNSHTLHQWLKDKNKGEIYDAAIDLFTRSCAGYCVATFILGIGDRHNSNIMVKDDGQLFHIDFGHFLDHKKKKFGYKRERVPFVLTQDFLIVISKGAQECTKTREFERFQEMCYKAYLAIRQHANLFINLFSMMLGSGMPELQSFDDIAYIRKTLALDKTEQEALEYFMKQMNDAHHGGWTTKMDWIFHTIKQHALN

Row | SMILES | IC50 (PI3K alfa; read-out: EPK_PI3Kalfa/IC50) [nM] | IC50 (PI3K alfa; read-out: PI3Kalfa/IC50) [nM] | IC50 ([1]; read-out: p-S6 IC50) [nM] | IC50 ([1]; read-out: p-S6) [nM]
1 | CCOc1ccc(-c2ccc3ncc4c(c3c2)n(-c2ccc(OCCOC)nc2C)c(=O)n4C)cn1 [Example 13.1, 8-(6-Ethoxy-pyridin-3-yl)-1-[6-(2-methoxy-ethoxy)-2-methyl-pyridin-3-yl]-3-methyl-1,3-dihydro-imidazo[4,5-c]quinolin-2-one] | 158 | – | 18 | –
2 | CCNc1cc(-c2ccc3ncc4c(c3c2)n(-c2ccc(OC)nc2Cl)c(=O)n4C)cnc1C [Example 18.1, 1-(2-Chloro-6-methoxy-pyridin-3-yl)-8-(5-ethylamino-6-methyl-pyridin-3-yl)-3-methyl-1,3-dihydro-imidazo[4,5-c]quinolin-2-one] | 40 | – | < 0.457 | –
3 | COc1ccc(-n2c(=O)n(C)c3cnc4ccc(-c5ccc6nccn6c5)cc4c32)c(OC)n1 [Example 8.10, 1-(2,6-Dimethoxy-pyridin-3-yl)-8-imidazo[1,2-a]pyridin-6-yl-3-methyl-1,3-dihydro-imidazo[4,5-c]quinolin-2-one] | 80 | – | 6.8 | –
4 | COc1ncccc1-n1c(=O)n(C)c2cnc3ccc(-c4cnc(N)c(C(F)(F)F)c4)cc3c21 [Example 1.3, 8-(6-Amino-5-trifluoromethyl-pyridin-3-yl)-1-(2-methoxy-pyridin-3-yl)-3-methyl-1,3-dihydro-imidazo[4,5-c]quinolin-2-one] | – | 10 | – | 1.52
5 | CCOc1ccc(-c2ccc3ncc4c(c3c2)n(-c2ccc(N(C)C)nc2C)c(=O)n4C)cn1 [Example 19.3, 1-(6-Dimethylamino-2-methyl-pyridin-3-yl)-8-(6-ethoxy-pyridin-3-yl)-3-methyl-1,3-dihydro-imidazo[4,5-c]quinolin-2-one] | 55 | – | 2 | –
6 | CCOc1cc(-c2ccc3ncc4c(c3c2)n(-c2cccnc2C)c(=O)n4C)cnc1C [Example 2.22, 8-(5-Ethoxy-6-methyl-pyridin-3-yl)-3-methyl-1-(2-methyl-pyridin-3-yl)-1,3-dihydro-imidazo[4,5-c]quinolin-2-one] | 81 | – | 12 | –
7 | Cc1ncccc1-n1c(=O)n(C)c2cnc3ccc(-c4cnc5c(ccn5C)c4)cc3c21 [Example 2.14, 3-Methyl-1-(2-methyl-pyridin-3-yl)-8-(1-methyl-1H-pyrrolo[2,3-b]pyridin-5-yl)-1,3-dihydro-imidazo[4,5-c]quinolin-2-one] | – | 34 | – | 8.74
8 | COCCOc1ccc(-n2c(=O)n(C)c3cnc4ccc(-c5cnc(N)c(C(F)(F)F)c5)cc4c32)c(C)n1 [Example 13.2, 8-(6-Amino-5-trifluoromethyl-pyridin-3-yl)-1-[6-(2-methoxy-ethoxy)-2-methyl-pyridin-3-yl]-3-methyl-1,3-dihydro-imidazo[4,5-c]quinolin-2-one] | 36 | – | 1 | –
9 | CCOc1ccc(-c2ccc3ncc4c(c3c2)n(-c2cccnc2C)c(=O)n4C)cn1 [Example 2.1, 8-(6-Ethoxy-pyridin-3-yl)-3-methyl-1-(2-methyl-pyridin-3-yl)-1,3-dihydro-imidazo[4,5-c]quinolin-2-one] | – | 56 | – | 19
10 | COCCN(C)c1ccc(-n2c(=O)n(C)c3cnc4ccc(-c5cncc(N)c5)cc4c32)c(C)n1 [Example 15.8, 8-(5-Amino-pyridin-3-yl)-1-{6-[(2-methoxy-ethyl)-methyl-amino]-2-methyl-pyridin-3-yl}-3-methyl-1,3-dihydro-imidazo[4,5-c]quinolin-2-one] | 49 | – | 6 | –

Now from value to compound, other results behind:

Row | IC50 (PI3K alfa; read-out: EPK_PI3Kalfa/IC50) [nM] | IC50 (PI3K alfa; read-out: PI3Kalfa/IC50) [nM] | SMILES | IC50 ([1]; read-out: p-S6 IC50) [nM] | IC50 ([1]; read-out: p-S6) [nM]
11 | 5 | – | Cc1ccc(-n2c(=O)n(C)c3cnc4ccc(-c5cnc(N)c(C(F)(F)F)c5)cc4c32)c(C)n1 [Example 14.5, 8-(6-Amino-5-trifluoromethyl-pyridin-3-yl)-1-(2,6-dimethyl-pyridin-3-yl)-3-methyl-1,3-dihydro-imidazo[4,5-c]quinolin-2-one] | 1 | –
12 | 15 | – | COc1nc(N2CCNCC2)ccc1-n1c(=O)n(C)c2cnc3ccc(-c4cnc(N(C)C)nc4)cc3c21 [Example 9.4, 8-(2-Dimethylamino-pyrimidin-5-yl)-1-(2-methoxy-6-piperazin-1-yl-pyridin-3-yl)-3-methyl-1,3-dihydro-imidazo[4,5-c]quinolin-2-one] | 6 | –
13 | 14 | – | CNc1cc(-c2ccc3ncc4c(c3c2)n(-c2ccc(N(C)C)nc2C)c(=O)n4C)cnc1C [Example 19.2, 1-(6-Dimethylamino-2-methyl-pyridin-3-yl)-3-methyl-8-(6-methyl-5-methylamino-pyridin-3-yl)-1,3-dihydro-imidazo[4,5-c]quinolin-2-one] | 1.1 | –
14 | 31 | – | CNc1ccc(-c2ccc3ncc4c(c3c2)n(-c2ccc(OCCOC)nc2C)c(=O)n4C)cn1 [Example 13.3, 1-[6-(2-Methoxy-ethoxy)-2-methyl-pyridin-3-yl]-3-methyl-8-(6-methylamino-pyridin-3-yl)-1,3-dihydro-imidazo[4,5-c]quinolin-2-one] | 3 | –
15 | < 3 | – | CCNc1cc(-c2ccc3ncc4c(c3c2)n(-c2ccc(OC)nc2C)c(=O)n4C)cnc1C [Example 11.7, 8-(5-Ethylamino-6-methyl-pyridin-3-yl)-1-(6-methoxy-2-methyl-pyridin-3-yl)-3-methyl-1,3-dihydro-imidazo[4,5-c]quinolin-2-one] | 2 | –
